According to US11034650B2, “Compounds useful for treating a Mannheimia haemolytica or Histophilus somni infection” (Intervet Inc., priority 2016, dated 2021):
Converted amounts (≈) assume the structure as drawn.

How the values were obtained:
Format in all cases: cell-based
[1] = tested on: Mannheimia haemolytica MH 12587 (1071, BRD field isolate, macrolide-resistance: erm+, E+); assay: MIC, broth-microdilution (CLSI VET01-A4), strain MH 12587; conditions: Mannheimia haemolytica strain MH 12587, broth-microdilution; unit assumed
Procedure, shortened: (§1)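 Compounds were serially diluted twofold in microdilution trays. Growth was judged by eye, and the MIC was the lowest concentration showing no turbidity. Results were interpreted per CLSI VET01-S3.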

[2] = tested on: Pasteurella multocida PM 12080 (IV102277-0093, BRD field isolate); assay: MIC, broth-microdilution (CLSI VET01-A4), strain PM 12080; conditions: Pasteurella multocida strain PM 12080, broth-microdilution; unit assumed
Procedure, shortened: as §1

[3] = tested on: Mannheimia haemolytica MH 13093 (XB0472-6014.1, BRD field isolate); assay: MIC, broth-microdilution (CLSI VET01-A4), strain MH 13093; conditions: Mannheimia haemolytica strain MH 13093, broth-microdilution; unit assumed
Procedure, shortened: as §1

[4] = tested on: Pasteurella multocida PM 6267 (P 2225 (L386), reference strain, mouse infection strain); assay: MIC, broth-microdilution (CLSI VET01-A4), strain PM 6267; conditions: Pasteurella multocida strain PM 6267, broth-microdilution; unit assumed
Procedure, shortened: as §1

[5] = tested on: Mannheimia haemolytica MH 6357 (M7/2, reference strain, cattle infection strain); assay: MIC, broth-microdilution (CLSI VET01-A4), strain MH 6357; conditions: Mannheimia haemolytica strain MH 6357, broth-microdilution; unit assumed
Procedure, shortened: as §1

[6] = tested on: Mannheimia haemolytica MH 13065 (XB0446-6003.9, BRD field isolate); assay: MIC, broth-microdilution (CLSI VET01-A4), strain MH 13065; conditions: Mannheimia haemolytica strain MH 13065, broth-microdilution; unit assumed
Procedure, shortened: as §1

[7] = tested on: Mannheimia haemolytica MH 6374 (ATCC 33396, reference strain); assay: MIC, broth-microdilution (CLSI VET01-A4), strain MH 6374; conditions: Mannheimia haemolytica strain MH 6374, broth-microdilution; unit assumed
Procedure, shortened: as §1

[8] = tested on: Pasteurella multocida PM 10775 (080130003051, BRD field isolate); assay: MIC, broth-microdilution (CLSI VET01-A4), strain PM 10775; conditions: Pasteurella multocida strain PM 10775, broth-microdilution; unit assumed
Procedure, shortened: as §1

[9] = tested on: Mannheimia haemolytica MH 10720 (154, BRD field isolate); assay: MIC, broth-microdilution (CLSI VET01-A4), strain MH 10720; conditions: Mannheimia haemolytica strain MH 10720, broth-microdilution; unit assumed
Procedure, shortened: as §1

[10] = tested on: Pasteurella multocida PM 6391 (ATCC 43137, reference strain); assay: MIC, broth-microdilution (CLSI VET01-A4), strain PM 6391; conditions: Pasteurella multocida strain PM 6391, broth-microdilution; unit assumed
Procedure, shortened: as §1

| MIC PM 12080 [2] [µg/mL] | MIC PM 6267 [4] [µg/mL] | MIC PM 10775 [8] [µg/mL] | MIC PM 6391 [10] [µg/mL] | Structure (SMILES) | MIC MH 12587 [1] [µg/mL] | MIC MH 13093 [3] [µg/mL] | MIC MH 6357 [5] [µg/mL] | MIC MH 13065 [6] [µg/mL] | MIC MH 6374 [7] [µg/mL] | MIC MH 10720 [9] [µg/mL] |
| --- | --- | --- | --- | --- | --- | --- | --- | --- | --- | --- |
| 0.4 (≈ 0.825 µM) | 0.8 (≈ 1.65 µM) | 0.4 (≈ 0.825 µM) | ≤ 0.1 | CON=C(C)[C@H](NC(=O)c1ccc(C#Cc2ccc(CNCc3ccccc3)cc2)cc1)C(=O)NO [Compound 382] | 0.2 (≈ 0.413 µM) | 0.8 (≈ 1.65 µM) | 0.8 (≈ 1.65 µM) | 0.8 (≈ 1.65 µM) | 1.6 (≈ 3.3 µM) | 0.8 (≈ 1.65 µM) |
| ≤ 0.1 | ≤ 0.1 | ≤ 0.1 | 0.4 (≈ 0.799 µM) | CC(C)(C(NC(=O)c1ccc(C#Cc2ccc(CNCc3ccccc3)cc2)cc1)C(=O)NO)[N+](=O)[O-] (stereo not drawn) [Compound 276] | 0.8 (≈ 1.6 µM) | 0.8 (≈ 1.6 µM) | 0.8 (≈ 1.6 µM) | 0.4 (≈ 0.799 µM) | 0.8 (≈ 1.6 µM) | ≤ 0.1 |
| ≤ 0.1 | ≤ 0.1 | ≤ 0.1 | ≤ 0.1 | CC(C)(O)[C@H](NC(=O)c1ccc(C#Cc2ccc(CNC3CC3)cc2)cc1)C(=O)NO [Compound 219] | 1.6 (≈ 3.8 µM) | 0.8 (≈ 1.9 µM) | 1.6 (≈ 3.8 µM) | 0.4 (≈ 0.949 µM) | 0.4 (≈ 0.949 µM) | ≤ 0.1 |
| 0.4 (≈ 0.804 µM) | 0.2 (≈ 0.402 µM) | ≤ 0.1 | 0.4 (≈ 0.804 µM) | CC[C@H](C)[C@H](NC(=O)c1ccc(C#Cc2ccc(CN3CCS(=O)(=O)CC3)cc2)cc1)C(=O)NO [Compound 142] | 25 (≈ 50.2 µM) | 12.5 (≈ 25.1 µM) | 6.3 (≈ 12.7 µM) | 12.5 (≈ 25.1 µM) | 12.5 (≈ 25.1 µM) | 3.1 (≈ 6.23 µM) |
| 0.2 (≈ 0.392 µM) | 0.4 (≈ 0.785 µM) | ≤ 0.1 | 0.4 (≈ 0.785 µM) | CSC(C)(C)[C@H](NC(=O)c1ccc(C#Cc2ccc(CNCc3nccs3)nc2)cc1)C(=O)NO [Compound 368] | 1.6 (≈ 3.14 µM) | 1.6 (≈ 3.14 µM) | 0.8 (≈ 1.57 µM) | 0.8 (≈ 1.57 µM) | 0.8 (≈ 1.57 µM) | 0.4 (≈ 0.785 µM) |
| 3.1 (≈ 7.84 µM) | 1.6 (≈ 4.05 µM) | 0.2 (≈ 0.506 µM) | 6.3 (≈ 15.9 µM) | CCCNCc1ccc(C#Cc2ccc(C(=O)N[C@@H](CO)C(=O)NO)cc2)cc1 [Compound 152] | 12.5 (≈ 31.6 µM) | 12.5 (≈ 31.6 µM) | 3.1 (≈ 7.84 µM) | 12.5 (≈ 31.6 µM) | 25 (≈ 63.2 µM) | 3.1 (≈ 7.84 µM) |
| 1.6 (≈ 3.8 µM) | 0.8 (≈ 1.9 µM) | ≤ 0.1 | 1.6 (≈ 3.8 µM) | O=C(N[C@@H](CO)C(=O)NO)c1ccc(C#Cc2ccc(CNC3CCCC3)cc2)cc1 [Compound 148] | 25 (≈ 59.3 µM) | 12.5 (≈ 29.7 µM) | 6.3 (≈ 14.9 µM) | 12.5 (≈ 29.7 µM) | 25 (≈ 59.3 µM) | 1.6 (≈ 3.8 µM) |
| 1.6 (≈ 3.17 µM) | 6.3 (≈ 12.5 µM) | 0.4 (≈ 0.793 µM) | 3.1 (≈ 6.14 µM) | CSC(C)(C)[C@H](NC(=O)c1ccc(C#Cc2ccc(CNCc3ncccn3)nc2)cc1)C(=O)NO [Compound 346] | 12.5 (≈ 24.8 µM) | 12.5 (≈ 24.8 µM) | 6.3 (≈ 12.5 µM) | 6.3 (≈ 12.5 µM) | 6.3 (≈ 12.5 µM) | 0.8 (≈ 1.59 µM) |
| 0.4 (≈ 1.02 µM) | 0.4 (≈ 1.02 µM) | ≤ 0.1 | 0.8 (≈ 2.03 µM) | CCNCc1ccc(C#Cc2ccc(C(=O)N[C@H](C(=O)NO)C(C)C)cc2)cc1 [Compound 201] | 12.5 (≈ 31.8 µM) | 6.3 (≈ 16 µM) | 12.5 (≈ 31.8 µM) | 6.3 (≈ 16 µM) | 6.3 (≈ 16 µM) | 3.1 (≈ 7.88 µM) |
